Entries after “also recorded” stand apart in the source; their conditions may differ. Read-outs that look alike come from different tables or passages of the source.
Experiments:
anesthetized rats [1] = assay: Heart rate increase reaction induced by frequent electrical stimulation of hindlimb afferent nerves, i.v. administration; assay type: in vivo, rat; details: for suppressive effect on heart rate increase: anesthetized rats, i.v., electrical stimulation of lower extremity nerves
From the text: Among (1) “heart rate increase reaction induced by frequent electrical stimulation of hindlimb afferent nerves” employed herein is not induced by weak stimulation intensity (0.2 V) that excites only thick medullated A-fibers, but induced by stimulation intensity (1 V) that is the same or higher than the excitation threshold of thin medullated A-fibers. When the stimulation intensity is further increased (10 V) so as to cause excitation of nonmedullated C fibers, the amplification of the heart rate increase reaction is increased to reach the maximum level (Sato et al, J Auton Nery Syst 4: 231, 1981; Uchida et al, Neurosci Left 269: 161, 1999). Noxious information is transmitted by A-fibers and C fibers. Therefore, such heart rate increase reaction induced by excitation of somatic afferent A-fibers and C fibers can be an indicator for evaluation of analgesic effects.
Blood pressure waveform was collected using a pulse rate tachometer (AT601-O, Nihon Kohden) and the heart rate was recorded continuously.

[2] = Arterial blood pressure after i.v. cPA administration; assay type: in vivo, rat
From the text: The right femoral artery was cannulated. Arterial blood pressure was continuously recorded from the intra-arterial cannula using a pressure transducer (TP-400T, Nihon Kohden, Tokyo).

anesthetized rats [3] = test system: anesthetized rats
[4] = test system: DNA polymerase α of eukaryotic cells; details: cited from earlier work
Sequence of DNA polymerase α of eukaryotic cells (P09884 whole entry): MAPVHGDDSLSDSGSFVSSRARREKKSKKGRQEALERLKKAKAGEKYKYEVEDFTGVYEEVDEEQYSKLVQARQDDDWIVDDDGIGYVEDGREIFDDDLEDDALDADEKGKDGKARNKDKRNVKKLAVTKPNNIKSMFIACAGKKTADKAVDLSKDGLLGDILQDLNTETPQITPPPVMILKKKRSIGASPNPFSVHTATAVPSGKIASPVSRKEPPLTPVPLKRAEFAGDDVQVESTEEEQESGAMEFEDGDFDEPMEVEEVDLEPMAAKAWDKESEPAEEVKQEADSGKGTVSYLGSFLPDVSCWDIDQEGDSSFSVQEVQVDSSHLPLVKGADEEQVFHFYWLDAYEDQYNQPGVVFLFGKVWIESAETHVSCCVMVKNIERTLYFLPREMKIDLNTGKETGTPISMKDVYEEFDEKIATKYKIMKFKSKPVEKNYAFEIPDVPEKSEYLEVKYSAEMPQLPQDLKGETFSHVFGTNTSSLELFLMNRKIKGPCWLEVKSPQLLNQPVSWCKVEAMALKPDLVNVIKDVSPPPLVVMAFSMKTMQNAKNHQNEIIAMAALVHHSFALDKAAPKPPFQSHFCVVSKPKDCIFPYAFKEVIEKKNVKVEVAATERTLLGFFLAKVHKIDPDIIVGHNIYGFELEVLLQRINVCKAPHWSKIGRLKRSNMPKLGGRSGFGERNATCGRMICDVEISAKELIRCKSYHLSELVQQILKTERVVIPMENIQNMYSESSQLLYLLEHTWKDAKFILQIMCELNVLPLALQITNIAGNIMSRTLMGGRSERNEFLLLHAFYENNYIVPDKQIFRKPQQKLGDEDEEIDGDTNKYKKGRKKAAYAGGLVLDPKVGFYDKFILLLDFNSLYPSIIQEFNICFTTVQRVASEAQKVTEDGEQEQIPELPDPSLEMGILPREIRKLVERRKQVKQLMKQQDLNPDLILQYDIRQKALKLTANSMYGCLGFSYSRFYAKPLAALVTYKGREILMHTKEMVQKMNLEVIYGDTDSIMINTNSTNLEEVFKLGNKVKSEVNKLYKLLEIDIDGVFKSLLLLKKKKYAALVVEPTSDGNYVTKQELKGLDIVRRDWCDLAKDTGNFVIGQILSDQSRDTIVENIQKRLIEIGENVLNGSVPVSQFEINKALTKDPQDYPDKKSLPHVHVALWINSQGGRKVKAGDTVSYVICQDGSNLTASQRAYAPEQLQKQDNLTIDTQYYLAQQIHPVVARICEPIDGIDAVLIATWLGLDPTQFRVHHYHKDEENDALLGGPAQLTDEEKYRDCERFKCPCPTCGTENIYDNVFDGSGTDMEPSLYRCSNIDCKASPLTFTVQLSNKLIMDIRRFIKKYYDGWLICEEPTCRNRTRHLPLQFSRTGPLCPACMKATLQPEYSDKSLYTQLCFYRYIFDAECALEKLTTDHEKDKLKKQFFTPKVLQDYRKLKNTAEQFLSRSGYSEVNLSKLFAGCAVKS
Sequence of DNA polymerase α of eukaryotic cells (Q14181 whole entry partner): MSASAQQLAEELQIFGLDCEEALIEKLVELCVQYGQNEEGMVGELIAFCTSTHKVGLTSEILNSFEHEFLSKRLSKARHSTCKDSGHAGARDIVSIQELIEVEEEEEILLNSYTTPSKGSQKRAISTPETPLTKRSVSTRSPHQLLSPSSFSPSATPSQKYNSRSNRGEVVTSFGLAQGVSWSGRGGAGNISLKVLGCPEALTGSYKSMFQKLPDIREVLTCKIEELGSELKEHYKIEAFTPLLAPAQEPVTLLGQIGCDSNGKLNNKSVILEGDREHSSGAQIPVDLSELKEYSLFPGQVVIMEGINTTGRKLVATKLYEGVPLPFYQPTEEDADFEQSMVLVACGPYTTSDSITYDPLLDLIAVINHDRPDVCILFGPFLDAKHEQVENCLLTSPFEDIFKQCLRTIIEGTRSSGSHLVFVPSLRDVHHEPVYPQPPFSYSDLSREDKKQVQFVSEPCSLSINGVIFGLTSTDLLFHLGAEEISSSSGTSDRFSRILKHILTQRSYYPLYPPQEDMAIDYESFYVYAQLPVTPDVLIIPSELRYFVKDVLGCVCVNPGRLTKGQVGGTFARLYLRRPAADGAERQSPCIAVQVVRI
Sequence of DNA polymerase α of eukaryotic cells (P49642 whole entry partner): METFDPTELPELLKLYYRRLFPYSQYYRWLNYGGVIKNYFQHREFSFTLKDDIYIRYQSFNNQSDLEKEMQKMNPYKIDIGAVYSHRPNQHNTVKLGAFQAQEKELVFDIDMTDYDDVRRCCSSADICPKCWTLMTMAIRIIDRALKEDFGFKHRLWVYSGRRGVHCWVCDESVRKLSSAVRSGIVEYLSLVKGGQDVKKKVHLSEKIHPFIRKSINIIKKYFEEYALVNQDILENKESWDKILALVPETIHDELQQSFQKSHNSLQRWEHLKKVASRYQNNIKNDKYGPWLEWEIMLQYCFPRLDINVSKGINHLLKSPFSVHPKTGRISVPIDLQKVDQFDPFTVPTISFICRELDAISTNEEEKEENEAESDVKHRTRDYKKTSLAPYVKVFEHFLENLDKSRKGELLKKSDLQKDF
Sequence of DNA polymerase α of eukaryotic cells (P49643 whole entry partner): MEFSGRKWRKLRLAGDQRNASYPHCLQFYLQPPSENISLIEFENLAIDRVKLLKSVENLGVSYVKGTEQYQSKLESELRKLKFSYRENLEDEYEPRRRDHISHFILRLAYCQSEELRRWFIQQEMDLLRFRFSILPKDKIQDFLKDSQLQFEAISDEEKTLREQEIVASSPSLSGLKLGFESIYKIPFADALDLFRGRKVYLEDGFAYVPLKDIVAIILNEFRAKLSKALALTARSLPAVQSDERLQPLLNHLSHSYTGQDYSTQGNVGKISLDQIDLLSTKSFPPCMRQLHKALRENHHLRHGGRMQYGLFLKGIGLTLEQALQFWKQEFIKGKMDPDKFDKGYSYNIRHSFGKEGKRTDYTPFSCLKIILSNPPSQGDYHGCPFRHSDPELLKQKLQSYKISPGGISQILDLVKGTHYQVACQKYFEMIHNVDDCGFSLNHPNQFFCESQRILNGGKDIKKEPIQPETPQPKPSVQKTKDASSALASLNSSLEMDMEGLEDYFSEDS

anesthetized cats = details: cited from earlier work
[5] = 50 μg/Kg i.v., 10 to 15 minutes after administration
[6] = 100 μg/Kg i.v., 10 to 15 minutes after administration
[7] = 200 μg/Kg i.v., 10 to 15 minutes after administration

Which “suppressive effect on heart rate increase” value (anesthetized rats [1]) does the source give for CCCCCCCC/C=C\CCCCCCCC(=O)OCC1COP(=O)(O)O1 (stereo not shown) [Ole-cPA, 1-oleoyl cyclic phosphatidic acid] here?
The value was “significantly suppressed; also recorded: significantly observed”.

And the “heart rate increase compared with control” value (anesthetized rats [1]; dose 5 mg/Kg body weight i.v.)?
Its value is “a half of or lower than that of the control”.

What about the “suppressive effect on heart rate increase after 20 minutes” value (anesthetized rats [1]; dose 5 mg/Kg i.v., after 20 minutes) of the same molecule?
Its value is “significant suppressive effect”.

And the “duration of the suppressive effect on heart rate increase” value (anesthetized rats [1]; dose higher than 1 mg/Kg body weight i.v.)?
The value was at least 20 min.

What about the “effects of administration on blood pressure” value ([2]; anesthetized rats, i.v.) of the same molecule?
The value was “not observed”.

What about the blood pressure ([2]; dose 2 mg/Kg body weight or less i.v.) of the same molecule?
The blood pressure was about 90 mmHg.

What about the “decrease in depolarization level of C reflex” value (anesthetized rats [3]; 2 mg/Kg i.v.) of the same molecule?
Its value is “approximately 50%”.

And the “changes in discharge level of Aδ reflex” value (anesthetized rats [3]; after administration, compared with C reflex)?
The value was “inconsistent”.

And the “change in discharge/depolarization level of cardiac nerves, particularly C reflex” value (anesthetized rats [3]; anesthetized rats, i.v.)?
The value was “decreased”.

What about the “decrease in discharge level of C reflex” value (anesthetized rats [3]; any concentration, 10 to 15 minutes after administration) of the same molecule?
Its value is “approximately 1 mV”.

And the “decrease in discharge level of C reflex” value (anesthetized rats [3]; any concentration, 10 to 15 minutes after administration, relative to before administration)?
Its value is “up to 40%”.

What about the “decrease in discharge level of C reflex” value (anesthetized rats [3]; dose 2 mg/Kg, 30 minutes after administration, compared with before administration) of the same molecule?
Its value is “approximately 20%”.

For CCCCCC[C@@H]1C[C@@H]1CCCCCCCC(=O)OC[C@@H]1COP(=O)(O)O1 [PHYLPA], which “effect on activity of DNA polymerase α” value [4] is on record?
The value was “suppresses”.

With CCCCCC/C=C\CCCCCCCC(=O)OCC1COP(=O)(O)C1 (stereo not shown) [Pal-2 ccPA, palmitoleoyl 2 carba cPA] as the molecule, how does the “decrease in depolarization level of C reflex” value (anesthetized rats [3]; [5]) read?
Its value is at least 30%.

And the “decrease in depolarization level of C reflex” value (anesthetized rats [3]; [6])?
The value was “approximately 60%”.

What about the “decrease in depolarization level of C reflex” value (anesthetized rats [3]; [7]) of the same molecule?
Its value is “approximately 70%”.

And the “decrease in depolarization level of C reflex” value (anesthetized rats [3]; 500 μg/Kg i.v., 10 to 15 minutes after administration)?
The value was “approximately 80%”.

What about the “change in discharge/depolarization level of cardiac nerves, particularly C reflex” value (anesthetized rats [3]; anesthetized rats, i.v.) of the same molecule?
Its value is “significant decrease”.

Which results are given for CCCCCC/C=C\CCCCCCCC(=O)OCC1CCP(=O)(O)O1 (stereo not shown) [Pal-3 ccPA, palmitoleoyl 3 carba cPA]?
decrease in depolarization level of C reflex (anesthetized rats [3]; [5]): approximately 30%; decrease in depolarization level of C reflex (anesthetized rats [3]; [6]): approximately 50%; decrease in depolarization level of C reflex (anesthetized rats [3]; [7]): approximately 60%; change in discharge/depolarization level of cardiac nerves, particularly C reflex (anesthetized rats [3]; anesthetized rats, i.v.): significant decrease; degree of decrease in C reflex depolarization compared with 2 carba derivatives (anesthetized rats [3]; i.v., anesthetized rats): somewhat lower

What does the source list for CCCCCCCCCCCCCCCC(=O)OCC1COP(=O)(O)O1 (stereo not shown) [Pal-cPA]?
suppressive effect on heart rate increase (anesthetized rats [1]): no consistent tendency could be confirmed; also recorded: not significant; blood pressure ([2]; after dose of 2 mg/Kg body weight i.v.): 130 mmHg; blood pressure ([2]; dose 300 μg/Kg body weight i.v., brief increase): around 100 mmHg; blood pressure ([2]; dose 2 mg/Kg i.v., thereafter up to 30 minutes after administration): around 130 mmHg

With CN1CC[C@]23c4c5ccc(O)c4O[C@H]2[C@@H](O)C=C[C@H]3[C@H]1C5 [morphine] as the molecule, how does the “effect on C-reflex potential” value (anesthetized cats) read?
The value was “selectively suppresses C-reflex potential alone”.
